Test results taken from patent US20240209005A1, “BICYCLIC HETEROARYL BORONATE DERIVATIVES AS ECTONUCLEOTIDE PYROPHOSPHATASE PHOSPHODIESTERASE 1 INHIBITORS” (RIBOSCIENCE LLC, priority 2021, published 2024).

Assays:
HGS tumor model = experiment: Anti-tumor activity in HGS tumor model; assay type: in vivo; details: animals treated with 20/kg of compound, day 42 after inoculation
Description: […]

ENPP1 = biological target: T1, ENPP1 (Homo sapiens, UniProt P22413); experiment: Measurement of pNP-TMP hydrolysis by ENPP1; assay type: biochemical; details: purified ENPP1, pNP-TMP substrate 500 μM, KM 232 μM; Ki calculated from IC50 by Cheng-Prusoff
T1 sequence (P22413 1-925): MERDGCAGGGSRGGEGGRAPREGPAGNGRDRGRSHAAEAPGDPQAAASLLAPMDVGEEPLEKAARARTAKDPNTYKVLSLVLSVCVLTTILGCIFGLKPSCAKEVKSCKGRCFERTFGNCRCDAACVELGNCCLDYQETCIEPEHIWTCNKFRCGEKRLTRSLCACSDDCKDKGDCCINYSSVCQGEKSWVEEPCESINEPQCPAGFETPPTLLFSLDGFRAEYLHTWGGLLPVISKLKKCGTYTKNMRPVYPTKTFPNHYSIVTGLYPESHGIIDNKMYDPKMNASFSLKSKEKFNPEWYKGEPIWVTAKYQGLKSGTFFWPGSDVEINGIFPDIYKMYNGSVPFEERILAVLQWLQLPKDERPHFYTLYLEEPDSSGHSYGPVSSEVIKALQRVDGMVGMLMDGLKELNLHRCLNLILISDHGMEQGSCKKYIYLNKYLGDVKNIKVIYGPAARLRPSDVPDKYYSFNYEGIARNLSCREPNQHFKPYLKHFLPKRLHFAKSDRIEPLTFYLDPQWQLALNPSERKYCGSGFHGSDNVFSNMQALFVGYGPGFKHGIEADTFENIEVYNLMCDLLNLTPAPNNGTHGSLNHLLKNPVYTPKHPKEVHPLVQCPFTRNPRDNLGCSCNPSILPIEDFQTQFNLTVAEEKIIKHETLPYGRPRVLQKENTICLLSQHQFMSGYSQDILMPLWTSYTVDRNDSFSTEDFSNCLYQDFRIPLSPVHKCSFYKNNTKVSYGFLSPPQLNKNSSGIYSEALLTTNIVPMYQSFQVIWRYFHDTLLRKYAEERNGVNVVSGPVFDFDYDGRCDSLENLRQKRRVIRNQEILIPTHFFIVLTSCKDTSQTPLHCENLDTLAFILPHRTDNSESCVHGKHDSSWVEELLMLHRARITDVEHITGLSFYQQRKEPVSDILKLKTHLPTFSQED
Experimental: p-Nitrophenyl thymidine 5′-monophosphate (pNP-TMP) is a synthesized substrate for ENPP1. The ENPP1 enzyme activity assay with pNP-TMP substrate was conducted as follows:
Incubation of ENPP1 with compounds was set at 25° C. for 10 min. […] For each compound dilution, wells with assay buffer (50 mM Tris-HCl, pH8.8, 250 mM NaCl, 0.1 mg/ml BSA, 1% DMSO) only but no ENPP1 were included as controls for subtraction of test compound derived absorbance at 405 nm.
Absorbance at 405 nm was recorded immediately in kinetic mode by PerkinElmer 2300 Enspire multimode plate reader.
For each inhibitor, the specific ENPP1 activity was calculated using the following equation: ENPP1 activity (pmol/min/g)=Adjusted Vmax (OD405 nm/min) X conversion factor (pmol/OD405 nm)/amount of enzyme (g)
Adjusted Vmax=V0×(Km+(S))/(S).
V0=(OD405 nm with ENPP1−OD405 nm ENPP1 blank)/minutes. OD405 nm was plotted, with blank subtracted, against time (minutes), the initial linear rate is V0. […]
The slope is the conversion factor. The percent ENPP1 activity for each sample was calculated using the following equation:
% enzyme activity=sample enzyme activity/MAX Activity×100%.
To determine the IC50 for each compound, compound concentration values and percent enzyme activity values were inserted into GraphPad Prism (GraphPad Prism version 7.0 for Windows, GraphPad Software, La Jolla California USA, www.graphpad.com), and Prism's Transform analysis was used to convert the x-axis values (compound concentration) to logarithms. A sigmoidal variable slope nonlinear regression analysis was performed using the following equation: Y=Bottom+(Top−Bottom)/(1+10^((LogIC50−X)*HillSlope)).

| Ki (ENPP1) [nM] | SMILES | tumor size (HGS tumor model) [mm3] |
| --- | --- | --- |
| < 100 | COC(=O)c1csc2c(NCc3ccc(B(O)O)cc3)ncnc12 [compound 38, 4-([[7-(methoxycarbonyl)thieno[3,2-d]pyrimidin-4-yl]-amino]methyl)-phenylboronic acid] |  |
| < 100 | NC(=O)c1csc2c(NCc3ccc(B(O)O)cc3)ncnc12 [compound 39, 4-[([7-carbamoylthieno[3,2-d]pyrimidin-4-yl]amino)-methyl]phenylboronic acid] |  |
| < 100 | N#Cc1csc2c(NCc3ccc(B(O)O)cc3)ncnc12 [compound 40, 4-[([7-cyanothieno[3,2-d]pyrimidin-4-yl]amino)-methyl]phenylboronic acid] |  |

Further lines, the compound ahead of its results:

| SMILES | Ki (ENPP1) [nM] | tumor size (HGS tumor model) [mm3] |
| --- | --- | --- |
| C=CC(=O)N1CCN(CCCn2c(=O)c(-c3c(Cl)c(OC)cc(OC)c3Cl)cc3cnc(NC)nc32)CC1 [8-(3-(4-acryloylpiperazin-1-yl)propyl)-6-(2,6-dichloro-3,5-dimethoxyphenyl)-2-(methylamino)pyrido[2,3-d]pyrimidin-7(8H)-one] |  | 55 |
| Cn1ncc2nc(-c3cnccn3)nc(NCc3ccc(B(O)O)cc3)c21 [compound 33, 4-([[1-methyl-5-(pyrazin-2-yl)pyrazolo[4,3-d]pyrimidin-7-yl]amino]methyl)-phenylboronic acid] | < 100 |  |
| Cn1ncc2nc(/C=C/c3cccnc3)nc(NCc3ccc(B(O)O)cc3)c21 [compound 35, 4-[([1-methyl-5-[(E)-2-(pyridin-3-yl)ethenyl]pyrazolo[4,3-d]pyrimidin-7-yl]amino)methyl]phenylboronic acid] | < 100 |  |
| O=CNc1csc2c(C#Cc3ccc(B(O)O)cc3)ncnc12 [compound 36, 4-(2-[7-formamidothieno[3,2-d]pyrimidin-4-yl]ethynyl)-phenylboronic acid] | < 1000 |  |
| OB(O)c1ccc(CNc2ccnc3cn[nH]c23)cc1 [compound 37, 4-([1H-pyrazolo[4,3-b]pyridin-7-ylamino]methyl)phenyl-boronic acid] | < 100 |  |
